ChEMBL document CHEMBL1134843, “Tyrosine kinase inhibitors. 18. 6-Substituted 4-anilinoquinazolines and 4-anilinopyrido[3,4-d]pyrimidines as soluble, irreversible inhibitors of the epidermal growth factor receptor” (J Med Chem, 2001)
pIC50: −log10 of the molar value.

Experiments:
[1] = target: Receptor tyrosine-protein kinase erbB-2 (Homo sapiens, UniProt P04626); test: Inhibition of heregulin-stimulated autophosphorylation of erbB2 in MDA-MB 453 cells; format: cell-based
MCF7 [2] = test: In vivo activity in MCF-7 tumor bearing mice, maximum dose (schedule 17-31 days); format: functional
NCI-H125 [3] = test: In vivo activity in H125 tumor bearing mice, maximum weight loss days 15-29; format: functional, Mus musculus
NCI-H125 [4] = test: In vivo activity in H125 tumor bearing mice, maximum dose (schedule 15-29 days); format: functional, Mus musculus
NCI-H125 [5] = test: In vivo activity in H125 tumor bearing mice, relative time required for treated and control tumors to reach 750 mg (schedule 15-29 days); format: functional, Mus musculus
MCF7 [6] = test: In vivo activity in MCF-7 tumor bearing mice, relative time required for treated and control tumors to reach 750 mg (schedule 17-31 days); format: functional
A-431 [7] = test: In vivo activity in A431 tumor bearing mice, maximum weight loss days 12-26; format: functional
A-431 [8] = test: In vivo activity in A431 tumor bearing mice, maximum dose (schedule 12-26 days); format: functional
A-431 [9] = test: In vivo activity in A431 tumor bearing mice, relative time required for treated and control tumors to reach 750 mg (schedule 12-26 days); format: functional
MCF7 [10] = test: In vivo activity in MCF-7 tumor bearing mice, ratio of treated and control tumor mass day 31; format: functional
NCI-H125 [11] = test: In vivo activity in H125 tumor bearing mice, ratio of treated and control tumor mass day 29; format: functional, Mus musculus
A-431 [12] = test: In vivo activity in A431 tumor bearing mice, ratio of treated and control tumor mass day 26; format: functional
MCF7 [13] = test: In vivo activity in MCF-7 tumor bearing mice, relative time required for treated and control tumors to reach 750 mg (schedule 11-25 days); format: functional
MCF7 [14] = test: In vivo activity in MCF-7 tumor bearing mice, maximum dose (schedule 11-25 days); format: functional
MCF7 [15] = test: In vivo activity in MCF-7 tumor bearing mice, ratio of treated and control tumor mass day 25; format: functional
MCF7 [16] = test: In vivo activity in MCF-7 tumor bearing mice, maximum weight loss days 11-25; format: functional
A-431 [17] = test: In vivo activity in A431 tumor bearing mice, maximum dose (schedule 10-24 days); format: functional
[18] = target: Epidermal growth factor receptor (Homo sapiens, UniProt P00533)
Chain of Epidermal growth factor receptor (P00533 whole entry): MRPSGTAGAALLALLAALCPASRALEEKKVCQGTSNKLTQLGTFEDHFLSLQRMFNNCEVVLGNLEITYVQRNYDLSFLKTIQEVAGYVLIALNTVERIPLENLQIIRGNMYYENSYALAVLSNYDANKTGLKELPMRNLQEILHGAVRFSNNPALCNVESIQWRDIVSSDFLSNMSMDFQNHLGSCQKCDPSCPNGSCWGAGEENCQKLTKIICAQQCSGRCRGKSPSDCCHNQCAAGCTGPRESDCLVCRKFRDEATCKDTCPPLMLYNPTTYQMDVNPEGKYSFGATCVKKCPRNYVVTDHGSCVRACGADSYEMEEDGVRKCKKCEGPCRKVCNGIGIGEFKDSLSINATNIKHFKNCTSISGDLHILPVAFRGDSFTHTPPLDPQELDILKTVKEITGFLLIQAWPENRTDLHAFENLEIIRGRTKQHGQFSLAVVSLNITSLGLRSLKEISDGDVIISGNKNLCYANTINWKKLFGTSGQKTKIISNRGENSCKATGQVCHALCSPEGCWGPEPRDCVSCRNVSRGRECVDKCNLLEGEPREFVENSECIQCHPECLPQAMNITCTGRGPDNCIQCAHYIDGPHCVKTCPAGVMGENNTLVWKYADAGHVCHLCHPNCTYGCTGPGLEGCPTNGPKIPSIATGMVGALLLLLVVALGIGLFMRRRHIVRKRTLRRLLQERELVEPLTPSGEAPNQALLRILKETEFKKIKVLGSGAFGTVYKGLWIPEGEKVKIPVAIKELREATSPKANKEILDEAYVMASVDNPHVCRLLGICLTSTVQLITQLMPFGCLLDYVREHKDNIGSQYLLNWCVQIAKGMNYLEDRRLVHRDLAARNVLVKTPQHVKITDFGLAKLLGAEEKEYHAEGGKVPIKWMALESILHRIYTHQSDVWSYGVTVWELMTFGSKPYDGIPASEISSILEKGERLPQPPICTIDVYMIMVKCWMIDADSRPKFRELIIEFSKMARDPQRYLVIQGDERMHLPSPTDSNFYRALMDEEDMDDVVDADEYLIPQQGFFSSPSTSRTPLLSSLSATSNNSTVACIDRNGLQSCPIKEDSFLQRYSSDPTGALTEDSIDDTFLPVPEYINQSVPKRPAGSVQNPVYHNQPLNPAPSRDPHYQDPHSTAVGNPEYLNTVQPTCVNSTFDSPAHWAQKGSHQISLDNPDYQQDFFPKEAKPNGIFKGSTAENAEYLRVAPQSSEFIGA
Description: Inhibition of phosphorylation of a polyglutamic acid/tyrosine random copolymer by EGFR enzyme (from human A431 carcinoma cell vesicles)

Chain of Receptor tyrosine-protein kinase erbB-2 (P04626 whole entry): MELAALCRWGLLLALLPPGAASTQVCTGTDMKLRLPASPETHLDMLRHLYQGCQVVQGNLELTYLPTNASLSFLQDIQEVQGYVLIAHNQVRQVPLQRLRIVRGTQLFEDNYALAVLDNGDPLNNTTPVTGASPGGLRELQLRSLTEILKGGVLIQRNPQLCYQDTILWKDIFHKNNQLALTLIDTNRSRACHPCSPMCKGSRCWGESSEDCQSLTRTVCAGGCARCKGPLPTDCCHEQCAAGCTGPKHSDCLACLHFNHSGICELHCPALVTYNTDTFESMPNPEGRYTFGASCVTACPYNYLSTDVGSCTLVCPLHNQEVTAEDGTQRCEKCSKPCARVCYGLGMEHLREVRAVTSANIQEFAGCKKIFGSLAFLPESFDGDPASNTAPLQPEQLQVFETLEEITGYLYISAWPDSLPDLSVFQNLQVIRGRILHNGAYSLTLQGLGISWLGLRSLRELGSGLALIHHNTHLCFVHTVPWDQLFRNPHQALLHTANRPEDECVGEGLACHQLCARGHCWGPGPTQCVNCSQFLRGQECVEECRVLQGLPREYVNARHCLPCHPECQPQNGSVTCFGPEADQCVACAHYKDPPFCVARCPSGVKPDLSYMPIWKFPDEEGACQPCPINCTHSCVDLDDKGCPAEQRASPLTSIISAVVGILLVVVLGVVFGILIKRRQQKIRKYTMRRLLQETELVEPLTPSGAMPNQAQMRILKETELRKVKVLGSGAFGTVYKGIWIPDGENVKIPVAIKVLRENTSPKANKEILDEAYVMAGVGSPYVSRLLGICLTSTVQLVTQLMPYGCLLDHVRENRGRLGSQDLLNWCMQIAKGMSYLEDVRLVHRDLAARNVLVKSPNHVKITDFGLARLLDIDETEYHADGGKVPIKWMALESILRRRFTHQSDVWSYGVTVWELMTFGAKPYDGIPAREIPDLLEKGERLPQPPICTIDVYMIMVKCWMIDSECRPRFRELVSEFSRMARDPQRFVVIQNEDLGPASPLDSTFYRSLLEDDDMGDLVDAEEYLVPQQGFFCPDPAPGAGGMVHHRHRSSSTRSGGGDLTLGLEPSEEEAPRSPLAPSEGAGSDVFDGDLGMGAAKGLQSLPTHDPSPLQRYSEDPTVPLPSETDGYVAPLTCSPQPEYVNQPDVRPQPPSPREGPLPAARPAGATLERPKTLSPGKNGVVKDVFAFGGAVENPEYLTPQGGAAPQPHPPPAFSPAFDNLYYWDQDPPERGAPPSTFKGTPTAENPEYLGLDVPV

Molecule `CCN(CC)CCCNC(=O)/C=C/C(=O)Nc1cc2c(Nc3cccc(Br)c3)ncnc2cn1` has a pIC50 [1] of 7.85.
`O=C(/C=C/C(=O)Nc1cc2c(Nc3cccc(Br)c3)ncnc2cn1)NCCCn1ccnc1` gave a pIC50 [1] of 8.09.
For `O=C(/C=C/C(=O)Nc1cc2c(Nc3ccc(F)c(Cl)c3)ncnc2cn1)NCCCN1CCOCC1`, the HDT (MCF7 [2]) was 200 mg/kg, the Weight change (NCI-H125 [3]) was -0.3 g and the HDT (NCI-H125 [4]) was 200 mg/kg. It also gave a T-C (NCI-H125 [5]) of 7.9 days, a T-C (MCF7 [6]) of 6.8 days and a Weight change (A-431 [7]) of -0.1 g. For the same molecule, the pIC50 [1] was 7.62, the HDT (A-431 [8]) was 200 mg/kg and the T-C (A-431 [9]) was 5.2 days. It also gave a T/C (MCF7 [10]) of 124%, a T/C (NCI-H125 [11]) of 23% and a T/C (A-431 [12]) of 70%.
For `C=CC(=O)N(C)c1cc2c(Nc3cccc(Br)c3)ncnc2cn1`, the T-C (MCF7 [13]) was 1.5 days, the Weight change (NCI-H125 [3]) was -0.4 g and the HDT (MCF7 [14]) was 200 mg/kg. The HDT (NCI-H125 [4]) was 200 mg/kg, the T-C (NCI-H125 [5]) was 7.3 days and the T/C (MCF7 [15]) was 88%. The Weight change (MCF7 [16]) was -0.3 g, the Weight change (A-431 [7]) was -0.1 g and the T-C (A-431 [9]) was 5.2 days. For the same molecule, the T/C (NCI-H125 [11]) was 56%, the HDT (A-431 [17]) was 200 mg/kg and the T/C (A-431 [12]) was 62%.
`CN(C)CCCNC(=O)/C=C/C(=O)Nc1cc2c(Nc3cccc(Br)c3)ncnc2cn1` gave a pIC50 [1] of 7.89.
Work on `O=S(=O)(CCO)c1cc2c(Nc3cccc(Br)c3)ncnc2cn1` yielded a pIC50 [18] of 7.03.
`CN(C)CCCNC(=O)/C=C/C(=O)Nc1ccc2ncnc(Nc3cccc(Br)c3)c2c1` gave a pIC50 [1] of 6.68.
Work on `O=C(/C=C/C(=O)Nc1cc2c(Nc3cccc(Br)c3)ncnc2cn1)NCCCN1CCOCC1` yielded a pIC50 [1] of 8.30.
